From ChEMBL document CHEMBL1147820, “Enhanced pharmacokinetic properties of 1,4-benzodiazepine-2,5-dione antagonists of the HDM2-p53 protein-protein interaction through structure-based drug design” (Bioorg Med Chem Lett, 2006)

What was measured:
in vitro [1] = details: human, Caco-2
[2] = Tmax in mouse at 40 mg/kg, po; type: ADME, organism-based; design: dose 40 mg/kg, route oral; details: in vivo
[3] = Half life in mouse at 5 mg/kg, iv; type: ADME, organism-based; design: dose 5 mg/kg, route intravenous; details: in vivo
[4] = Clearance in mouse at 5 mg/kg, iv; type: ADME, organism-based; design: dose 5 mg/kg, route intravenous; details: in vivo
[5] = Cmax in mouse at 40 mg/kg, po; type: ADME, organism-based; design: dose 40 mg/kg, route oral; details: in vivo
[6] = Volume of distribution in mouse at 5 mg/kg, iv; type: ADME, organism-based; design: dose 5 mg/kg, route intravenous; details: in vivo, read-out: Vdss
[7] = Bioavailability in mouse; type: ADME, organism-based; details: in vivo
in vitro [8] = details: human, Caco-2; remark: listed apart in the source
[9] = Half life in mouse at 40 mg/kg, po; type: ADME, organism-based; design: dose 40 mg/kg, route oral; details: in vivo

Row | Papp B→A (in vitro [1]) [×10⁻⁶ cm/s] | Tmax [2] [h] | half-life [3] [h] | clearance [4] [mL/min/kg] | Cmax [5] [µM] | Vd [6] [L/kg] | bioavailability [7] [%] | Papp A→B (in vitro [8]) [×10⁻⁶ cm/s] | half-life [9] [h] | Compound
1 | 13 | 6 | 3.1 | 13.2 | 6.3 | 3 | 100 | 7.34 | 2.5 | C[C@H](c1ccc(Cl)cc1)N1C(=O)c2cc(I)ccc2N(CCCCC(=O)O)C(=O)[C@@H]1c1ccc(Cl)cc1
2 | 9.1 |  |  |  |  |  |  | 19.9 |  | CC#Cc1ccc2c(c1)C(=O)N([C@H](C)c1ccc(Cl)cc1)[C@@H](c1ccc(Cl)cc1)C(=O)N2CCCCC(=O)O
3 | 16.1 |  |  |  |  |  |  | 20.9 |  | C#Cc1ccc2c(c1)C(=O)N([C@H](C)c1ccc(Cl)cc1)[C@@H](c1ccc(Cl)cc1)C(=O)N2CCCCC(=O)O
